“Also recorded” adds a separate entry of the source. No end group written: not given here.
Tests used:
Format in all cases: cell-based
[1] = test system: HT29 human colorectal adenocarcinoma cells; assay: MTT cell proliferation assay, serum-containing
Experimental: (§1) HT29 (colorectal adenocarcinoma) (ATCC HTB-38; Manassas, Va.). SW480 colon carcinoma cells (ATCC) and MKN45 gastric carcinoma cells (Cancer Research Laboratory, University of New South Wales, Sydney, Australia) were maintained in DMEM (Invitrogen, Carlsbad, Calif.) containing 10% heat inactivated, filtered, fetal bovine serum (FBS; Invitrogen) and 20 mM HEPES buffer. Cell culture was carried out in an incubator set at 37° C. in 5% CO2 in air. Cells were grown to approximately 80% confluence in tissue culture flasks before being recovered from the substrate by trypsinisation. Briefly, resident culture media was removed and cells washed twice with sterile phosphate-buffered saline solution. A volume of 10× trypsin in EDTA (to provide 0.5% trypsin w/w) was added in sufficient quantity to cover the cells. When cells had sufficiently detached from the substrate, trypsin activity was stopped by the addition of 10% FBS in DMEM. Detached cells were transferred to a conical sterile tube and the suspended cells passaged ten times up and down through a 10 ml pipette to produce a single cell suspension suitable for counting. The number of viable cells was determined using a viability stain (Trypan blue) and counting using a haemocytometer.
(§2) The MTT cell proliferation assay measures cell proliferation rate and, in instances where cell viability is compromised, the assay indicates a comparative reduction in cell viability.
(§3) Single cell suspensions of viable trypsinised cells were seeded into 96-well tissue culture plates at a density of 2×10^3 cells per well in a volume of 100 ul of culture media with or without serum. A set of triplicate wells was prepared for each concentration of compound being tested. […]
(§4) Appropriate concentrations of compound were prepared by dilution of freshly prepared sterile 1 mM stock solutions in normal saline into cell culture media to give a final culture-well volume of 200 ul. […] Plates were gently vortexed to complete solubilisation of crystalline material and absorbance read at 540 nm using a microplate reader. […]

[2] = test system: SW480 human colon carcinoma cells; assay: MTT cell proliferation assay, serum-containing; conditions: presence of serum, 48 hour MTT assay, FIG. 6
Experimental: as §1, with “Detached cells were transferred to a conical sterile tube and the suspended cells passaged ten times up and down through a 10 ml pipette to produce a single cell suspension suitable for counting.” left out, “haemocytometer. […]” for “haemocytometer.”
as §4

[3] = test system: MKN45 human gastric carcinoma cells; assay: MTT cell proliferation assay, serum-containing; conditions: presence of serum, 48 hour MTT assay, FIG. 6
Experimental: as §1, with “Detached cells were transferred to a conical sterile tube and the suspended cells passaged ten times up and down through a 10 ml pipette to produce a single cell suspension suitable for counting.” left out, “haemocytometer. […]” for “haemocytometer.”
as §4

[4] = test system: HT29 human colorectal adenocarcinoma cells; assay: MTT cell proliferation assay, serum-free; conditions: absence of serum, 72 hour MTT assay, FIG. 5c
Experimental: as §1, §2, §3, §4

## 24-NH2: peptide consisting of amino acids 266-289 of GenBank Accession No. O68604; extended version of peptide 22C, synthesized and amidated (DDVRRRVQQETTGHRGRAKDPLYR-NH2; listed as Brevibacterium linens)
[1]; MTT assay (72 hours), serum-containing, concentration of 50 μM, FIG. 5a
  depression of in vitro cell proliferation of colon cancer cells: up to 36%

## DDVRRRVQQETTGHRGRAKDPL (listed as Brevibacterium linens) [22C]
[1]; MTT assay containing serum (24 hour assay), concentration of 35 uM, FIG. 5d
  depression of in vitro cell proliferation of colon cancer cells: up to 54%
[1]; serum-supplemented culture media, FIG. 5d and FIG. 5a
  effectiveness compared with other peptides: more effective than peptide 14C and peptide 8C; also recorded: more effective than the 24-NH2 peptide
[2]
  inhibition of proliferation of SW480 cells: inhibit proliferation of SW480 and MKN45 cells to a similar degree as for HT29 cells
[3]
  inhibition of proliferation of MKN45 cells: inhibit proliferation of SW480 and MKN45 cells to a similar degree as for HT29 cells
[4]
  inhibition of growth of HT29 colon cancer cells: inhibited the growth

## H-DDVRRRVQQETTGH-COOH (H-DDVRRRVQQETTGH-OH) [14C, 14 mer derivative of 22C containing the TAT-like motif]
[4]
  inhibition of growth of HT29 colon cancer cells: inhibited the growth

## RGRAKDPL [8C]
[4]
  inhibition of growth of HT29 colon cancer cells: inhibited the growth
